Experimental data taken from patent US20130131073A1, “FUSED-IMIDAZOYL COMPOUNDS USEFUL AS ANTIMICROBIAL AGENTS” (priority 2010, published 2013).
Values after ≈ are worked out from the molar mass of the structure shown.

Test system: Staphylococcus aureus ATCC29213
Experiment: Broth microdilution susceptibility testing (MIC determination)
Type: cell-based
Conditions: Mueller Hinton broth, overnight incubation at 35° C., lowest concentration preventing visible growth, read-out: MIC Staph. aureus ATCC29213
Description: Susceptibility testing (MIC determinations) was performed using the standard broth microdilution methodology precisely as described in the Clinical Laboratory Standards Institute Document M7-A6; Methods for Dilution Antimicrobial Susceptibility Tests for Bacteria That Grow Aerobically; Approved Standard- Sixth Edition (ISBN 1-56238-486-4), CLSI, 940 West Valley Road, Suite 1400, Wayne, Pa. 19087-1898 USA. To perform the test, a series of 0.1 ml media in a 96-well plate is prepared with Mueller Hinton broth to which various concentrations of the test compound are added. The media are then inoculated with a standardized suspension of the test organism, Staphylococcus aureus ATCC29213. After overnight incubation at 35° C., the tests are examined and the minimal inhibitory concentration (MIC) is determined. MIC is defined as the lowest concentration of an antimicrobial agent that prevents visible growth of a microorganism in the broth microdilution susceptibility test

MIC [µg/mL] | Structure (SMILES)
10 (≈ 23 µM) | CN1CCN(C(=O)CNc2c(-c3ccc(OC(F)(F)F)cc3)nc3cnccn23)CC1 [compound 268]
10 (≈ 19.1 µM) | CC(c1ccccc1)N1CCN(C(=O)CNc2c(-c3ccc(OC(F)(F)F)cc3)nc3cnccn23)CC1 (centres unmarked) [compound 295]
5 (≈ 10.2 µM) | COCCCN1CCN(C(=O)CNc2c(-c3ccc(OC(F)(F)F)cc3)nc3cnccn23)CC1 [compound 281]
1.25 (≈ 2.87 µM) | CC(=O)N1CCN(C(=O)C(C)Nc2c(-c3ccc(N(C)C)cc3)nc3cnccn23)CC1 (centres unmarked) [compound 102]
5 (≈ 8.61 µM) | O=C(CNc1c(-c2ccc(OC(F)(F)F)cc2)nc2cnccn12)N1CCN(c2nc(-c3ccccc3)ns2)CC1 [compound 282]
10 (≈ 19.1 µM) | Cc1cccc(N2CCN(C(=O)CNc3c(-c4ccc(OC(F)(F)F)cc4)nc4cnccn34)CC2)c1C [compound 276]
10 (≈ 18.6 µM) | Cc1cccc(N2CCN(C(=O)C(C)Nc3c(-c4ccc(OC(F)(F)F)cc4)nc4cnccn34)CC2C)c1 (centres unmarked) [compound 318]
10 (≈ 18 µM) | O=C(CNc1c(-c2ccc(OC(F)(F)F)cc2)nc2cnccn12)N1CCN(C(=O)OCc2ccccc2)CC1 [compound 275]
0.08 (≈ 0.141 µM) | O=C(CNc1c(-c2ccc(OC(F)(F)F)cc2)nc2cnccn12)N1CCN(c2c(Cl)cncc2Cl)CC1 [compound 274]
10 (≈ 17.5 µM) | COc1cc(OC)nc(CN2CCN(C(=O)CNc3c(-c4ccc(OC(F)(F)F)cc4)nc4cnccn34)CC2)n1 [compound 280]
2 (≈ 4.14 µM) | Cc1cccc(C)c1N1CCN(C(=O)CNc2c(-c3ccc(N(C)C)cc3)nc3cnccn23)CC1 [compound 26]
10 (≈ 18.8 µM) | O=C(CNc1c(-c2ccc(OC(F)(F)F)cc2)nc2cnccn12)N1CCN(c2ccccc2Cl)CC1 [compound 270]
5 (≈ 10.5 µM) | C=CCN1CCN(C(=O)C(C)Nc2c(-c3ccc(OC(F)(F)F)cc3)nc3cnccn23)CC1 (centres unmarked) [compound 189]
2.5 (≈ 4.71 µM) | O=C(CNc1c(-c2ccc(OC(F)(F)F)cc2)nc2cnccn12)N1CCN(CCC2CCCCC2)CC1 [compound 277]
0.08 (≈ 0.152 µM) | CN(C)c1ccc(-c2nc3cnccn3c2NCC(=O)N2CCN(c3c(Cl)cncc3Cl)CC2)cc1 [compound 31]
5 (≈ 11.1 µM) | CC(Nc1c(-c2ccc(OC(F)(F)F)cc2)nc2cnccn12)C(=O)N1CCN(C)CC1 (centres unmarked) [compound 184]
1.25 (≈ 2.51 µM) | O=C(CNc1c(-c2ccc(OC(F)(F)F)cc2)nc2cnccn12)N1CCN(c2ccncc2)CC1 [compound 269]
